# Laboratory results published in patent publication US8304452B2, “Radical scavenger and active oxygen eliminating agent” (InBiotex Inc., priority 2005, dated 2012).
# Legend:
# [1] = system: galactosemic cataract model; assay: Galactosemic cataract model, eye drops (Example 4); type: in vivo, Crj:CD(SD) IGS rats; design: key to Pathological findings of lens: Cataract / Pathological findings of lens: Vacuolation of lens epithelium / Pathological findings of lens: Alignment irregularity of lens cortical fiber / Pathological findings of lens: Vacuole structure in outer cortex: −: no change; ±: very slight change; +: slight change; 2+: medium change; 3+: significant change; details: for severity of cataract (Cotlier standard score): four times per day, n=10, mean±standard deviation; for Pathological findings of lens: Alignment irregularity of lens cortical fiber / Pathological findings of lens: Cataract / Pathological findings of lens: Vacuolation of lens epithelium / Pathological findings of lens: Vacuole structure in outer cortex: eye balls resected 28 days later; for cases with severe sugar cataract: until day 28 of eye dropping
# Method: 352 mg of a test substance was weighed and then dissolved in 1.1 mL of 1N NaOH (1 mol/L sodium hydroxide; manufactured by Wako Pure Chemical, Co., Ltd.). After dissolution, it was verified with a pH paper (Duotest under trade name; MACHEREY-NAGEL) that the pH was within an acceptable range (5 to 8). Subsequently, the resulting solution was divided in each volume of 0.03 mL into 30 2-ml tubes (28 such tubes for four tests per day for 7 days+2 such tubes for spare). These were immediately frozen in liquid nitrogen, and stored under freezing (preset at −85° C. within an acceptable range of −90 to −75° C.)/dark conditions. The solutions under storage were defined as stock solution at 320 mg/mL. The stock solutions could be used within 8 days after the preparation. The stock solutions outside the 8-day period after the preparation were disposed. Before eye dropping, the following preparation was done. After the tubes of the stock solution at 320 mg/mL were back to ambient temperature, 0.93 mL of physiological saline was directly added to the tubes for dilution. After preparative dilution, it was verified with a pH paper that the pH of the diluted solutions were within an acceptable range (5 to 8). The resulting eye drop was defined as 1.0% eye drop for use in administration. 0.09 mL of the 1.0% eye drop was divided in a 2-mL tube, to which 0.81 mL of physiological saline was directly added for dilution. Subsequently, it was verified with a pH paper that the pH of the diluted solution was within an acceptable range (5 to 8). The resulting eye drop was defined as 0.1% eye drop, for use in administration. Herein, eye drops of pH outside the acceptable range were never used. The 1.0% eye drop and the 0.1% eye drop practically used for administration were at pH 5.2 to 8.0 and pH 6.2 to 7.4, respectively. As the medium, physiological saline as the control substance was used as it was. Male Crj:CD(SD) IGS rats (SPF) of age 3 weeks were subjected to a 5-day quarantine period and then to an 8-day acclimatization period. By the random extraction method, the rats were grouped in 3 groups, where each group consisted of 10 rats, in a manner such that the average body weight and deviation in each group might be almost equal. After grouping, the rats were fed ad libitum with a powdery feed containing galactose at 50% [a powder feed (Lot No. 050107) of a mixture at equal amounts of CRF-1 powder feed (Lot No. 041104; manufacturer: Oriental Yeast Co., Ltd.) and galactose (D-galactose, Lot No. QYG0223, manufacturer: Yoneyama Pharmaceutical Industry, Co. Ltd.); the mixture was prepared by Oriental Yeast Co., Ltd.; abbreviated as {galactose feed}] hereinafter], as placed in a powder feeder. Additionally, the rats were fed ad libitum with drinking water. The three groups were defined as (A) medium control group, (B) 0.1% 5-S-GAD eye drop group, and (C) 1.0% 5-S-GAD eye drop group for dosing. The administration route was eye dropping as a clinically prospective route. The number of eye dropping per day was four times, while the interval between eye droppings was about 2 hours. The eye dropping was done around 9:30 am (9:00 am to 10:00 am as the defined time period), around 11:30 (11:00 am to 12:00 am as the defined time period), around 13:30 (13:00 pm to 14:00 pm as the defined time period) and around 15:30 pm (15:00 pm to 16:00 pm as the defined time period). Eye dropping was done over 28 days. On day 1, day 7, day 14, day 21 and day 28, ophthalmologic examinations were done about 30 minutes after each last eye dropping. The observation method is as follows. Right eye with eye drop application and left eye without any treatment were observed of their lenses, using a slit lamp (SL-15, Kowa Company, Ltd.). The severity of cataract was evaluated, according to the Cotlier standard (see FIG. 1 in Arch Ophthalmol., (67) 476-82, 1962, which was entitled ‘Development of galactose cataract in the rat, showing biomicroscopic front and slit view’). […]
# [2] = Superoxide anion-scavenging activity, chemiluminescence, versus N-acetyl-L-carnosine (Example 7); type: biochemical; details: lucigenin chemiluminescence; FIG. 7
# Method: In a 50 mM carbonate buffer (pH 10) containing 200 μM lucigenin, 100 μM xanthine and 1 mU/mL xanthine oxidase reacted together. The chemiluminescence level depending on the generated superoxide anion (O^2−) was assayed for 10 minutes. The area under the curve indicating the total chemiluminescence over the 10 minutes was calculated. A group to which PBS(−) instead of the test substance solution was added at the same amount as that of the solution, was defined as a control. In the same manner as in Example 3, the effect of 5-S-GAD or N-acetyl-L-carnosine added on the increase of chemiluminescence was examined. The suppressive activity thereof was defined as superoxide anion-scavenging activity (%) (see FIG. 7).
# [3] = system: chicken egg chorioallantois; assay: Vascularization-suppressing action, chicken egg chorioallantois (Example 10); type: in vivo; details: 10 μL in 1% methylcellulose inside ring, 37° C., 48 hours; FIG. 10
# Method: A ring of a 3-mm diameter was placed on a chicken egg chorioallantois on day 5 after oviposition. 10 μL of the test substance diluted with 1% methylcellulose was added inside the ring. After incubation at 37° C. for 48 hours, fat emulsion was injected into the chorioallantois. A part from which the ring was displaced was photographed. Using an image analysis software (Kurabo Industries, Ltd.), the vascular area was measured.
smiles,measurement,setting,value
"NCCC(=O)N[C@@H](Cc1cc(O)c(O)c(SC[C@H](NC(=O)CC[C@H](N)C(=O)O)C(=O)NCC(=O)O)c1)C(=O)O [5-S-GAD, N-β-alanyl-5-S-glutathionyl-3,4-dihydroxyphenylalanine]",abnormality of general states,"[1]; 0.1% and 1.0% eye drop groups, before eye dropping and about one hour after the last eye dropping during the eye dropping period",no abnormality of their general states was observed
same,severity of cataract (Cotlier standard score),"[1]; 0.1% eye drop, on day 1",0 ± 0
same,severity of cataract (Cotlier standard score),"[1]; 0.1% eye drop, on day 7",1.9 ± 0.1
same,severity of cataract (Cotlier standard score),"[1]; 0.1% eye drop, on day 14",2.5 ± 0.1
same,severity of cataract (Cotlier standard score),"[1]; 0.1% eye drop, on day 21",3.6 ± 0.1
same,severity of cataract (Cotlier standard score),"[1]; 0.1% eye drop, on day 28",3.9 ± 0.1
same,Pathological findings of lens: Alignment irregularity of lens cortical fiber,[1]; 0.1% eye drop,+
same,Pathological findings of lens: Cataract,[1]; 0.1% eye drop,2+
same,Pathological findings of lens: Vacuolation of lens epithelium,[1]; 0.1% eye drop,±
same,Pathological findings of lens: Vacuole structure in outer cortex,[1]; 0.1% eye drop,±
same,cases with severe sugar cataract,[1]; 0.1% eye drop,no case with severe sugar cataract occurred until day 28
same,severity of cataract (Cotlier standard score),"[1]; 1.0% eye drop, on day 1",0 ± 0
same,severity of cataract (Cotlier standard score),"[1]; 1.0% eye drop, on day 7",1.8 ± 0.1
same,severity of cataract (Cotlier standard score),"[1]; 1.0% eye drop, on day 14",2.4 ± 0.1
same,severity of cataract (Cotlier standard score),"[1]; 1.0% eye drop, on day 21",3.4 ± 0.1
same,severity of cataract (Cotlier standard score),"[1]; 1.0% eye drop, on day 28",3.8 ± 0.1
same,Pathological findings of lens: Alignment irregularity of lens cortical fiber,[1]; 1.0% eye drop,+
same,Pathological findings of lens: Cataract,[1]; 1.0% eye drop,2+
same,Pathological findings of lens: Vacuolation of lens epithelium,[1]; 1.0% eye drop,−
same,Pathological findings of lens: Vacuole structure in outer cortex,[1]; 1.0% eye drop,±
same,cases with severe sugar cataract,[1]; 1.0% eye drop,No case with severe sugar cataract emerged until day 28
same,pathological effect in the galactosemic rat cataract model (in words),"[1]; pathological findings, day 28",apparent ameliorating effect pathologically
same,superoxide anion (O^2−)-scavenging action compared with N-acetyl-L-carnosine (in words),[2],excellent superoxide anion (O^2−)-scavenging action compared with N-acetyl-L-carnosine
same,suppression of vascularization (vascular area),[3],suppressed vascularization significantly
